Reference: patent US20030138470A1, “Fragrant composition having mosquito-repelling effect” (TAKASAGO INTERNATIONAL CORPORATION, priority 2001, published 2003)

Test system: adults of Culex pipiens pallen
Test: Blood-sucking repelling test on forearms
Type: in vivo
Conditions: 1% test sample solution on forearms, 15 minutes exposure, 30° C., humidity 70%
Protocol: […] of 1% test sample solutions were prepared by dissolving 1 g of each of the fragrant compositions of Examples 1, 2 and 3, Comparative Example 3 (Pelargonium citrosum extract), and Comparative Example 4 (DEET) into 90 g of ethanol and adding 9 g of water.
On the sample solutions of Examples 1, 2 and 3 and Comparative Examples 3 and 4, a blood-sucking repelling test toward adults of Culex pipiens pallen was carried out, whereby strength of mosquito-repellency and persistency were compared.
The test was carried out in a constant-temperature room kept at a temperature of 30° C. and a humidity of 70%.
After 10 ml of each test sample solution was applied onto right and left forearms, each arm was entered for 15 minutes into a bag-shape wire netting having a size of 20 cm×15 cm in which 50 each of male and female mosquitoes which were 5 to 7 days after emergence were placed, whereby the mosquitoes were allowed to suck blood. This operation was repeatedly carried out 1 hour, 2 hours, 3 hours, 4 hours, and 6 hours after the sample application, the number of sucked places within the sucking time was counted, and repellency was calculated according to the following equation.
Repellency=[(X−Y)/X]×100(%)
X: the number of sucked places in the case that no test sample solution was applied.
Y: the number of sucked places in the case that a test sample solution was applied.

CCN(CC)C(=O)c1cccc(C)c1 [Comparative Example 4, N,N-Diethyl-m-toluamide]
100%: Repellency After 1 hour (1 hour after application) | Repellency After 2 hours (2 hours after application) | Repellency After 3 hours (3 hours after application) | Repellency After 4 hours (4 hours after application) | Repellency After 6 hours (6 hours after application)
